Like-named read-outs stand apart in the source and are kept apart here.
What was measured:
[1] = test system: Interleukin 6 (IL-6) secretion in C2C12 cells; experiment: IL-6 secretion (ELISA) of differentiated C2C12 cells exposed to pro-inflammatory cytokine mix (cytomix); type: cell-based
Procedure: C2C12 Myoblasts, purchased from the American Type Culture Collection (ATCC) (ref. CRL-1772), were seeded at 8000 cells per well in a 96 well plate (Greiner, Kremsmünster, Austria) using a DMEM Glutamax 4.5 g D-glucose (Gibco, ref 31966021) supplemented with foetal bovine serum (FBS) 10% (PanBiotech, ref P190902), 1% PenStrep (Biowest) and 1% HEPES (Biowest). Cells were then differentiated for 6 days using a differentiation medium (DMEM Glutamax 4.5 g D-glucose (Gibco, ref 31966021), 2% Horse serum (Thermofisher, ref 160501229) 1% PenStrep and 1% HEPES). All the media were sterilized with a 0.45 μm filter unit (VWR). […] The medium was collected and an ELISA for Interleukin-6 were performed following the instruction provided by the supplier (Proteintech ref. KE10007). Finally, the absorbance at a wavelength of 450 nm was measured using a microplate plate reader (Fluostar Optima, BMG Labtech).

[2] = test system: inflammation in certain cell-based models; conditions: cited from earlier work

Row | SMILES | reduction of IL-6 secretion ([1]; UA 6.25 μM alone, 24 h pre-treatment then cytomix 24 h) | reduction of IL-6 secretion ([1]; UA 12.5 μM alone, 24 h pre-treatment then cytomix 24 h) | impact on IL-6 secretion ([1]; BHB 5 μM alone, cytomix) | reduction of IL-6 secretion ([1]; higher dose of BHB alone, cytomix) | concentration at which the anti-inflammatory effect of BHB was observed ([2]; PMC6402511) | concentration at which the anti-inflammatory effect of BHB was observed ([2]; PMID: 25686106)
1 | O=c1oc2cc(O)ccc2c2ccc(O)cc12 [Urolithin A] | 25% | 60% |  |  |  | 
2 | CC(O)CC(=O)[O-].[Na+] (racemic) [BHB, DL-β-Hydroxybutyric acid sodium salt] |  |  | −0.007% | 32% | > 250 µM | above 2 mM

Reference: patent publication US20260216127A1, “COMBINATIONS OF A UROTHILIN AND A KETONE BODY” (Amazentis SA, priority 2022, published 2026)
